In patent US9902736B2, “1-oxo/acylation-14-acylated oridonin derivative, preparation method therefor and application thereof” (HANGZHOU BENSHENG PHARMACEUTICAL CO., LTD., priority 2012, dated 2018):
Converted amounts (≈) assume the structure as drawn.

Assays:
MGC-803 = assay: Solid tumor cell growth inhibition, MTT, 72 h; format: cell-based, human; conditions: Homo sapiens, MGC-803; 72 h, MTT
Protocol: (§1) 6000 well-growing human solid tumor cells were obtained and inoculated into wells of a 96-well cell culture plate. The culture medium was DMEM High Glucose cell culture medium containing 10% fetal bovine serum. The plate was placed in a carbon dioxide cell incubator (5% CO2) at 37° C. and incubated for 24 hours. After added with 1-oxo/acylated-14-acylated oridonin derivatives of different concentration and mixed uniformly, the plate was placed in a carbon dioxide cell incubator (5% CO2) at 37° C. and incubated for 72 hours. Then the viable cell concentration was determined by MTT method.

CNE = assay: Solid tumor cell growth inhibition, MTT, 72 h; format: cell-based, human; conditions: Homo sapiens, CNE; 72 h, MTT
Protocol: as §1

Hep-2 = assay: Solid tumor cell growth inhibition, MTT, 72 h; format: cell-based, human; conditions: Homo sapiens, HEp-2; 72 h, MTT
Protocol: as §1

Hela = assay: Solid tumor cell growth inhibition, MTT, 72 h; format: cell-based, human; conditions: Homo sapiens, HeLa; 72 h, MTT
Protocol: as §1

RPMI 8226 = assay: Multiple myeloma cell growth inhibition, MTT, 72 h; format: cell-based; conditions: Homo sapiens
Protocol: Multiple myeloma cell lines: RPMI8226 (multiple myeloma), purchased from Fuxiang Bio-tech Co. Ltd., Shanghai, China.
(§2) 6000 well-growing cells were obtained and inoculated into wells of a 96-well cell culture plate. […] On the next day, the 1-oxo/acylated-14-acylated oridonin derivatives of different concentrations were added and mixed uniformly. The plate was placed in a carbon dioxide cell incubator (5% CO2) at 37° C. and incubated for 72 hours. Then the viable cell concentration was determined by MTT method.

RKO = assay: Solid tumor cell growth inhibition, MTT, 72 h; format: cell-based; conditions: Homo sapiens
Protocol: as §1

SK-OV-3 = assay: Solid tumor cell growth inhibition, MTT, 72 h; format: cell-based; conditions: Homo sapiens, SK-OV-3, 72 h, MTT
Protocol: as §1

Hep G2 = assay: Solid tumor cell growth inhibition, MTT, 72 h; format: cell-based; conditions: Homo sapiens, HepG2
Protocol: as §1

U87-MG = assay: Solid tumor cell growth inhibition, MTT, 72 h; format: cell-based; conditions: Homo sapiens, U-87 MG
Protocol: as §1

CaEs-17 = assay: Solid tumor cell growth inhibition, MTT, 72 h; format: cell-based; conditions: Homo sapiens, CaEs17
Protocol: as §1

A549 = assay: Solid tumor cell growth inhibition, MTT, 72 h; format: cell-based; conditions: Homo sapiens
Protocol: as §1

PC-3 = assay: Solid tumor cell growth inhibition, MTT, 72 h; format: cell-based; conditions: Homo sapiens
Protocol: as §1

MG-63 = assay: Solid tumor cell growth inhibition, MTT, 72 h; format: cell-based; conditions: Homo sapiens
Protocol: as §1

PANC-1 = assay: Solid tumor cell growth inhibition, MTT, 72 h; format: cell-based; conditions: Homo sapiens
Protocol: as §1

Becap-37 = assay: Solid tumor cell growth inhibition, MTT, 72 h; format: cell-based; conditions: Homo sapiens
Protocol: as §1

NB4 = assay: Leukemia cell growth inhibition, MTT, 72 h; format: cell-based, human; conditions: Homo sapiens, NB-4; 72 h, MTT
Excerpt: (§3) Leukemia cell lines: leukemia cell lines: K562/adr (drug-resistant, chronic myeloid leukemia, CML), NB4 (acute promyelocytic leukemia, AML), Kasumi-1 (acute myeloid leukemia M2 type, AML-M2), Jurkat (acute lymphoblastic leukemia, ALL), all of which were donated by Cancer Research Institute of Zhejiang University, China; and H9 (acute lymphoblastic leukemia, ALL), which was purchased from China Center for Type Culture Collection.
as §2, with “6000 well-growing leukemia cells were” for “6000 well-growing cells were”, “C. and was incubated for” for “C. and incubated for”

H9 = assay: Leukemia cell growth inhibition, MTT, 72 h; format: cell-based, human; conditions: Homo sapiens, H9; 72 h, MTT
Excerpt: as §3
as §2, with “6000 well-growing leukemia cells were” for “6000 well-growing cells were”, “C. and was incubated for” for “C. and incubated for”

Jurkat = assay: Leukemia cell growth inhibition, MTT, 72 h; format: cell-based, human; conditions: Homo sapiens, Jurkat; 72 h, MTT
Excerpt: as §3
as §2, with “6000 well-growing leukemia cells were” for “6000 well-growing cells were”, “C. and was incubated for” for “C. and incubated for”

K562/ADR = assay: Leukemia cell growth inhibition, MTT, 72 h; format: cell-based; conditions: Homo sapiens
Excerpt: as §3
as §2, with “6000 well-growing leukemia cells were” for “6000 well-growing cells were”, “C. and was incubated for” for “C. and incubated for”

Kasumi-1 = assay: Leukemia cell growth inhibition, MTT, 72 h; format: cell-based; conditions: Homo sapiens
Excerpt: as §3
as §2, with “6000 well-growing leukemia cells were” for “6000 well-growing cells were”, “C. and was incubated for” for “C. and incubated for”

IC50 (MGC-803): 0.91 mg/L (≈ 2.11 µM)
IC90 (MGC-803): 4.16 mg/L (≈ 9.66 µM)
IC50 (CNE): 1.13 mg/L (≈ 2.62 µM)
IC90 (CNE): 4.96 mg/L (≈ 11.5 µM)
IC50 (Hep-2): 1.62 mg/L (≈ 3.76 µM)
IC90 (Hep-2): 6.93 mg/L (≈ 16.1 µM)
IC50 (Hela): 1.35 mg/L (≈ 3.14 µM)
IC90 (Hela): 3.86 mg/L (≈ 8.97 µM)
IC50 (RPMI 8226): 0.5 mg/L (≈ 1.16 µM)
IC90 (RPMI 8226): 1.88 mg/L (≈ 4.37 µM)
IC50 (RKO): 0.6 mg/L (≈ 1.39 µM)
IC90 (RKO): 1.91 mg/L (≈ 4.44 µM)
IC50 (SK-OV-3; read-out: IC50 SK-OV-3): 1.99 mg/L (≈ 4.62 µM)
IC90 (SK-OV-3; read-out: IC90 SK-OV-3): 3.92 mg/L (≈ 9.11 µM)
IC50 (Hep G2): 1.61 mg/L (≈ 3.74 µM)
IC90 (Hep G2): 8.04 mg/L (≈ 18.7 µM)
IC50 (U87-MG): 1.24 mg/L (≈ 2.88 µM)
IC90 (U87-MG): 3.64 mg/L (≈ 8.46 µM)
IC50 (CaEs-17): 1.32 mg/L (≈ 3.07 µM)
IC90 (CaEs-17): 5.89 mg/L (≈ 13.7 µM)
IC50 (A549): 2.93 mg/L (≈ 6.81 µM)
IC90 (A549): 6.29 mg/L (≈ 14.6 µM)
IC50 (PC-3): 1.99 mg/L (≈ 4.62 µM)
IC90 (PC-3): 3.92 mg/L (≈ 9.11 µM)
IC50 (MG-63): 0.47 mg/L (≈ 1.09 µM)
IC90 (MG-63): 1.8 mg/L (≈ 4.18 µM)
IC50 (PANC-1): 1.96 mg/L (≈ 4.55 µM)
IC90 (PANC-1): 5.76 mg/L (≈ 13.4 µM)
IC50 (Becap-37): 1.13 mg/L (≈ 2.62 µM)
IC90 (Becap-37): 4.58 mg/L (≈ 10.6 µM)
IC50 (NB4): 0.14 mg/L (≈ 0.325 µM)
IC90 (NB4): 0.82 mg/L (≈ 1.9 µM)
IC50 (H9): 0.53 mg/L (≈ 1.23 µM)
IC90 (H9): 0.98 mg/L (≈ 2.28 µM)
IC50 (Jurkat): 0.92 mg/L (≈ 2.14 µM)
IC90 (Jurkat): 5.63 mg/L (≈ 13.1 µM)
IC50 (K562/ADR): 0.52 mg/L (≈ 1.21 µM)
IC90 (K562/ADR): 1.9 mg/L (≈ 4.41 µM)
IC50 (Kasumi-1): 0.69 mg/L (≈ 1.6 µM)
IC90 (Kasumi-1): 1.7 mg/L (≈ 3.95 µM)
Compound: C=C1C(=O)[C@]23[C@H](OC(=O)C4CC4)[C@H]1CC[C@H]2[C@@]12CO[C@@]3(O)[C@@H](O)[C@@H]1C(C)(C)CCC2=O [BS-OR-017]
